Results published in patent US11723361B2, “Antimicrobial composition having efficacy against endospores” (Next Science IP Holdings Pty Ltd, priority 2015, dated 2023).

Experiment: Peracetic acid titrations (pH)
Format: physicochemical
Method: Two peracetic acid solutions were prepared by adding distilled water to a flask containing peracetic acid. The concentration of one of the solutions was 5% (w/v) while that of the other was 10% (w/v). The calculated effective solute concentrations for these solutions were 1.97 and 3.95 Osm/L, respectively.
To a 50 mL beaker was added 20 mL distilled water. A cleaned, rinsed and dried probe from a calibrated, temperature compensating pH meter was lowered into the beaker. Sequential aliquots of the peracetic acid solution then were added to the beaker, with pH readings after each. The titrations were performed at room temperature.

For CC(=O)OO [Peracetic acid, peracetic acid], the “pH of water after addition” value (1 mL (5% by volume) of either 5% or 10% (w/v) solution) was “below 2”, the pH (5% (w/v) solution, 0.25 mL added to 20 mL distilled water, room temperature) was 2.42 and the pH (5% (w/v) solution, 0.50 mL added to 20 mL distilled water, room temperature) was 2.17. For the same compound, the pH (5% (w/v) solution, 0.75 mL added to 20 mL distilled water, room temperature) was 2.00, the pH (5% (w/v) solution, 1.00 mL added to 20 mL distilled water, room temperature) was 1.89 and the pH (5% (w/v) solution, 1.25 mL added to 20 mL distilled water, room temperature) was 1.80. For the same compound, the pH (5% (w/v) solution, 1.50 mL added to 20 mL distilled water, room temperature) was 1.74, the pH (5% (w/v) solution, 1.75 mL added to 20 mL distilled water, room temperature) was 1.68 and the pH (5% (w/v) solution, 2.00 mL added to 20 mL distilled water, room temperature) was 1.59. For the same compound, the pH (5% (w/v) solution, 2.25 mL added to 20 mL distilled water, room temperature) was 1.56, the pH (5% (w/v) solution, 2.50 mL added to 20 mL distilled water, room temperature) was 1.53 and the pH (5% (w/v) solution, 2.75 mL added to 20 mL distilled water, room temperature) was 1.48. It also gave a pH (5% (w/v) solution, 3.00 mL added to 20 mL distilled water, room temperature) of 1.45, a pH (5% (w/v) solution, 3.25 mL added to 20 mL distilled water, room temperature) of 1.42 and a pH (5% (w/v) solution, 3.50 mL added to 20 mL distilled water, room temperature) of 1.41. It also gave a pH (5% (w/v) solution, 3.75 mL added to 20 mL distilled water, room temperature) of 1.38, a pH (5% (w/v) solution, 4.00 mL added to 20 mL distilled water, room temperature) of 1.34 and a pH (5% (w/v) solution, 4.25 mL added to 20 mL distilled water, room temperature) of 1.30. It also gave a pH (5% (w/v) solution, 4.50 mL added to 20 mL distilled water, room temperature) of 1.28, a pH (5% (w/v) solution, 4.75 mL added to 20 mL distilled water, room temperature) of 1.26 and a pH (5% (w/v) solution, 5.00 mL added to 20 mL distilled water, room temperature) of 1.25. The pH (10% (w/v) solution, 0.1 mL added to 20 mL distilled water, room temperature) was 2.74, the pH (10% (w/v) solution, 0.2 mL added to 20 mL distilled water, room temperature) was 2.48 and the pH (10% (w/v) solution, 0.3 mL added to 20 mL distilled water, room temperature) was 2.33. For the same compound, the pH (10% (w/v) solution, 0.4 mL added to 20 mL distilled water, room temperature) was 2.22, the pH (10% (w/v) solution, 0.5 mL added to 20 mL distilled water, room temperature) was 2.14 and the pH (10% (w/v) solution, 0.6 mL added to 20 mL distilled water, room temperature) was 2.07. The pH (10% (w/v) solution, 0.7 mL added to 20 mL distilled water, room temperature) was 2.00, the pH (10% (w/v) solution, 0.8 mL added to 20 mL distilled water, room temperature) was 1.95 and the pH (10% (w/v) solution, 0.9 mL added to 20 mL distilled water, room temperature) was 1.91. It also gave a pH (10% (w/v) solution, 1.0 mL added to 20 mL distilled water, room temperature) of 1.86, a pH (10% (w/v) solution, 1.1 mL added to 20 mL distilled water, room temperature) of 1.83 and a pH (10% (w/v) solution, 1.2 mL added to 20 mL distilled water, room temperature) of 1.79. It also gave a pH (10% (w/v) solution, 1.3 mL added to 20 mL distilled water, room temperature) of 1.76, a pH (10% (w/v) solution, 1.4 mL added to 20 mL distilled water, room temperature) of 1.73 and a pH (10% (w/v) solution, 1.5 mL added to 20 mL distilled water, room temperature) of 1.70. For the same compound, the pH (10% (w/v) solution, 1.6 mL added to 20 mL distilled water, room temperature) was 1.67, the pH (10% (w/v) solution, 1.7 mL added to 20 mL distilled water, room temperature) was 1.65 and the pH (10% (w/v) solution, 1.8 mL added to 20 mL distilled water, room temperature) was 1.62. The pH (10% (w/v) solution, 1.9 mL added to 20 mL distilled water, room temperature) was 1.60, the pH (10% (w/v) solution, 2.0 mL added to 20 mL distilled water, room temperature) was 1.58 and the “asymptotic pH” value (either 5% or 10% (w/v) acid solution) was about 1.1±0.1. For the same compound, the pH (solutions of at least 2.5% (w/v), according to the tabulated data) was “no more than 1.25” and the “pH of water after addition” value (tiny aliquot, less than 1% by volume, of either 5% or 10% (w/v) solution) was “below 3”.
